Source: ChEMBL document CHEMBL5257056, “Accelerated Discovery of Macrocyclic CDK2 Inhibitor QR-6401 by Generative Models and Structure-Based Drug Design” (ACS Med Chem Lett, 2023)

Columns and labels:
[1] = in vitro; details: dog, MDCK-MDR1
[2] = in vitro; details: human, microsomes

SMILES: O=C1NCCCNC(=O)c2cccc(n2)Nc2cc([nH]n2)[C@H]2CC[C@H](C2)O1
- Papp A→B at […], 5 µM [1]: 0.9 ×10⁻⁶ cm/s
- half-life at 0.75 h, 1 µM [2]: 1.07 h
